Experimental data as given in patent publication US20160257651A1, “NOVEL COMPOUND WITH ANTIBACTERIAL ACTIVITY” (priority 2013, published 2016).
≈ marks a conversion by molar mass, not a printed value. Where “and” joins values, the source holds several entries; their conditions need not be identical. Equal entries are not always repeated.

Legend:
[1] = test system: E. coli strain 1708 plus PABN; test: Antibacterial activity against Escherichia coli in combination with efflux pump inhibitor PAβN; conditions: E coli plus PABN 40 mg/L, strain 1708, Quinolone Res
Description: (§3) The numerical values in the tables indicate MIC (mg/L), Res means resistant bacterium, and Sus means susceptible bacterium.
(§4) Antibacterial activities against Escherichia coli of the compounds shown Table 19 were examined by the following method.
(§5) After completion of the culture, the cells were suspended in fresh TBS to prepare a cell suspension showing an absorbance of 0.3 at 578 nm.

[2] = test system: E. coli strain 1708; test: Antibacterial activity against Escherichia coli
Description: as §3, §4, §5

[3] = target: T1, GyrA (S84L) + GyrB (wt) (Staphylococcus aureus, UniProt P20831, S84L); test: DNA cleavage assay using DNA gyrase; assay type: biochemical
T1 construct: made in house; host or cells: E. coli BL21(DE3)
Description: (§1) To the culture medium of the resulting transformed Escherichia coli 1 mM isopropyl-8-thiogalactopyranoside (produced by Wako Pure Chemical Industries) was added to induce expression of maltose-binding GyrA(wt), maltose-binding GyrB(wt), or maltose-binding mutant GyrA(S84L), and the bacterium was cultured overnight at 25° C.
Then, each disrupted cell suspension was added to a column filled with an amylose resin covalently bound with maltose (produced by Novagen). A buffer (20 mM Tris-HCl (pH 8.0), 200 mM sodium chloride, 1 mM EDTA) containing 10 mM maltose was added to the column to elute the maltose-binding GyrA(wt), maltose-binding GyrB(wt), and maltose-binding mutant GyrA(S84L). […]
(§2) Then, the total value of the intensities of the bands of “S”, “L”, and “N” was calculated for each concentration, and the result was used as “total DNA amount” (equation 1 mentioned below). Further, the total value of the intensities of the bands of “L” and “N” was also calculated, and the result was used as “amount of cleaved DNA” (equation 2 mentioned below). Then, the ratio (%) of the amount of the substrate plasmid DNA to the total DNA amount was calculated in accordance with the following equation 3, and the ratio (%) of the amount of the cleaved DNA to the total DNA amount was calculated in accordance with the following equation 4.

[4] = target: T2, GyrA (wt) + GyrB (wt) (Staphylococcus aureus, UniProt P20831); test: DNA cleavage assay using DNA gyrase; assay type: biochemical; conditions: for Ratio of cleaved DNA (%) / Ratio of substrate plasmid DNA (%): GyrA (wt) + GyrB (wt)
T2 construct: made in house; host or cells: E. coli BL21(DE3)
Description: as §1
Then, each disrupted cell suspension was added to a column filled with an amylose resin covalently bound with maltose (produced by Novagen). A buffer (20 mM Tris-HCl (pH 8.0), 200 mM sodium chloride, 1 mM EDTA) containing 10 mM maltose was added to the column to elute the maltose-binding GyrA(wt), maltose-binding GyrB(wt), and maltose-binding mutant GyrA(S84L).
To each eluate, 4 units/1 mL of the eluate of protease (Factor Xa, produced by Amersham) was added, and the mixture was left standing at 25° C. for 3 hours and 30 minutes to cleave the maltose-binding proteins, GyrA(wt), GyrB(wt), and mutant GyrA(S84L), from the maltose-binding GyrA(wt), maltose-binding GyrB(wt), and maltose-binding mutant GyrA(S84L).
Then, GyrA(wt), GyrB(wt), and mutant GyrA(S84L) were concentrated by using an ultrafiltration unit (YM-50 Filter Unit, produced by Millipore).
The concentrated GyrA(wt), GyrB(wt), and mutant GyrA(S84L) were each suspended in a buffer (35 mM Tris-HCl (pH 7.5), 24 mM potassium chloride, 6 mM magnesium chloride, 1.8 mM spermidine, 0.36 mg/mL bovine serum albumin, 5 mM DTT, 50 volume % glycerol) at a concentration of 1 μg/μL for GyrA(wt), 2 μg/μL for GyrB(wt), or 1 μg/μL for mutant GyrA(S84L).
Levofloxacin was added at a final concentration of […] as control for an index of the enzymatic activity.
The reaction solution was left standing at 25° C. for 30 minutes to allow the reaction. Subsequently, a 6 mass % solution of sodium laurylsulfate (2 μL) and a 5 mg/mL solution of Proteinase K (2 μL, produced by Wako Pure Chemical Industries) were added to the reaction solution, and the mixture was left standing at 37° C. for 30 minutes to inactivate GyrA(wt) and GyrB(wt) bound to DNA.
Then, the whole volume of the reaction solution treated with Proteinase K was subjected to electrophoresis on 1 mass % agarose gel to visualize the resultants of the reaction.
as §2
The DNA cleavage assay is a method for evaluating an inhibitory action of an agent for DNA gyrase by detecting whether or not DNAs cleaved by DNA gyrase are recombined.

[5] = test system: E. coli strain 1709 plus PABN; test: Antibacterial activity against Escherichia coli in combination with efflux pump inhibitor PAβN; conditions: E coli plus PABN 40 mg/L, strain 1709, Quinolone Sus
Description: as §3, §4, §5

[6] = test system: E. coli strain 1709; test: Antibacterial activity against Escherichia coli
Description: as §3, §4, §5

O=c1cc(CO)c2cc(F)c(-c3ccc(O)cc3)cc2n1C1CC1 [J-131CP, 1-cyclopropyl-6-fluoro-4-(hydroxymethyl)-7-(4-hydroxyphenyl)-1,2-dihydroquinolin-2-one]
MIC [1]: 0.25 µg/mL
MIC [2]: 128 µg/mL (≈ 393 µM)
IC50 ([3]; IC50, GyrA (S84L) + GyrB (wt), calculated from the ratio of cleaved DNA): 3.07 µM
IC50 ([3]; IC50, GyrA(S84L) and GyrB(wt)): 3.1 µM
Ratio of cleaved DNA (%) ([4]; concentration 0.125 μg/mL): 12%
Ratio of substrate plasmid DNA (%) ([4]; concentration 0.125 μg/mL): 88%
Ratio of cleaved DNA (%) ([4]; concentration 0.25 μg/mL): 19%
Ratio of substrate plasmid DNA (%) ([4]; concentration 0.25 μg/mL): 81%
Ratio of cleaved DNA (%) ([4]; concentration 0.5 μg/mL): 23%
Ratio of substrate plasmid DNA (%) ([4]; concentration 0.5 μg/mL): 77%
Ratio of cleaved DNA (%) ([4]; concentration 1 μg/mL): 47%
Ratio of substrate plasmid DNA (%) ([4]; concentration 1 μg/mL): 53%
Ratio of cleaved DNA (%) ([4]; concentration 2 μg/mL): 77%
Ratio of substrate plasmid DNA (%) ([4]; concentration 2 μg/mL): 23%
Ratio of cleaved DNA (%) ([4]; concentration 4 μg/mL): 81%
Ratio of substrate plasmid DNA (%) ([4]; concentration 4 μg/mL): 19%
IC50 ([4]; IC50, GyrA(wt) and GyrB(wt)): 6.15 µM and 6.2 µM
MIC [5]: ≦0.06 mg/L
MIC [6]: 8 µg/mL (≈ 24.6 µM)

C[C@H]1COc2c(N3CCN(C)CC3)c(F)cc3c(=O)c(C(=O)O)cn1c23 [LVX, levofloxacin]
Ratio of cleaved DNA (%) ([4]; concentration 16 μg/mL): 78%
Ratio of substrate plasmid DNA (%) ([4]; concentration 16 μg/mL): 22%
